Reference: US20240132431A1, “METHOD FOR ALKYLATING ACIDIC FUNCTIONAL GROUP” (Chugai Seiyaku Kabushiki Kaisha, priority 2021, published 2024)

Biological target: T1, Bcl-2 protein (Recombinant Human Bcl-2 Protein) (Homo sapiens, UniProt P10415)
T1 construct: purchased Novus NBP2-34889
Experiment: Binding evaluation of mixture library compounds to Bcl-2 using AS-MS (affinity selection mass spectrometry)
Conditions: AS-MS, mixture of 1200 compounds, Bcl-2, ASMS Ratio(%)=(A−C)/B×100; for ASMS ratio (%) n = 1: replicate n = 1; for ASMS ratio (%) n = 2: replicate n = 2
In short: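 Readout is ASMS Ratio (%), (A−C)/B×100, from reversed-phase LC/MS of SEC-passed extracts, with protein-free unfiltered standard (B) and protein-free SEC blank (C). Recombinant human Bcl-2 at 20 μM final met ~1200 pooled compounds at […] each for 1 h, 23° C., dark, in Tris-HCl pH 7.4 buffer.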

T1 sequence (P10415 whole entry): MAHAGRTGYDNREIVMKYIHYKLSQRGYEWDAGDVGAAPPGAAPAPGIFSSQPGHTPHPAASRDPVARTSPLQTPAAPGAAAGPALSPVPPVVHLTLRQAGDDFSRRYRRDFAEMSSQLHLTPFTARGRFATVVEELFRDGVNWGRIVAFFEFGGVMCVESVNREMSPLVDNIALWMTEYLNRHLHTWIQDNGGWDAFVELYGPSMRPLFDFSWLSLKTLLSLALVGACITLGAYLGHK

| SMILES | ASMS ratio (%) n = 1 [%] | ASMS ratio (%) n = 2 [%] |
| --- | --- | --- |
| CCOc1cccc(C#Cc2ccccc2CN2CCN(c3ccc(C(=O)NCC(F)(F)F)cc3)CC2)c1 [B1K069-01, 4-[4-[[2-[2-(3-Ethoxyphenyl)ethynyl]phenyl]methyl]piperazin-1-yl]-N-(2,2,2-trifluoroethyl)benzamide] | 3.5 | −1.4 |
| CCOc1cncc(C#Cc2ccccc2CN2CCN(c3ccc(C(=O)NCC(F)(F)F)cc3)CC2)c1 [B1K070-01, 4-[4-[[2-[2-(5-Ethoxypyridin-3-yl)ethynyl]phenyl]methyl]piperazin-1-yl]-N-(2,2,2-trifluoroethyl)benzamide] | 0.0 | 0.0 |
| CCOc1cccc(-c2ccccc2CN2CCN(c3ccc(C(=O)NCC(F)(F)F)nn3)CC2)c1 [B1K071-01, 6-[4-[[2-(3-Ethoxyphenyl)phenyl]methyl]piperazin-1-yl]-N-(2,2,2-trifluoroethyl)pyridazine-3-carboxamide] | 1.6 | −0.9 |
| CCOc1cncc(-c2ccccc2CN2CCN(c3ccc(C(=O)NCC(F)(F)F)nn3)CC2)c1 [B1K072-01, 6-[4-[[2-(5-Ethoxypyridin-3-yl)phenyl]methyl]piperazin-1-yl]-N-(2,2,2-trifluoroethyl)pyridazine-3-carboxamide] | −0.6 | 1.7 |
| CCOc1cccc(-c2ccc(CN3CCN(c4ccc(C(=O)NCC(F)(F)F)nn4)CC3)cc2C)c1 [B1K073-01, 6-[4-[[4-(3-Ethoxyphenyl)-3-methylphenyl]methyl]piperazin-1-yl]-N-(2,2,2-trifluoroethyl)pyridazine-3-carboxamide] | 3.1 | −1.9 |
| CCOc1cncc(-c2ccc(CN3CCN(c4ccc(C(=O)NCC(F)(F)F)nn4)CC3)cc2C)c1 [B1K074-01, 6-[4-[[4-(5-Ethoxypyridin-3-yl)-3-methylphenyl]methyl]piperazin-1-yl]-N-(2,2,2-trifluoroethyl)pyridazine-3-carboxamide] | 0.0 | 0.0 |
| CCOc1cccc(-c2ccc(CN3CCN(c4ccc(C(=O)NCC(F)(F)F)nn4)CC3)c(CC)c2)c1 [B1K075-01, 6-[4-[[4-(3-Ethoxyphenyl)-2-ethylphenyl]methyl]piperazin-1-yl]-N-(2,2,2-trifluoroethyl)pyridazine-3-carboxamide] | 1.4 | −3.8 |
| CCOc1cncc(-c2ccc(CN3CCN(c4ccc(C(=O)NCC(F)(F)F)nn4)CC3)c(CC)c2)c1 [B1K076-01, 6-[4-[[4-(5-Ethoxypyridin-3-yl)-2-ethylphenyl]methyl]piperazin-1-yl]-N-(2,2,2-trifluoroethyl)pyridazine-3-carboxamide] | – | 0.0 |
| CCOc1cccc(-c2ccc(CN3CCN(c4ccc(C(=O)NCC(F)(F)F)nn4)CC3)cc2F)c1 [B1K077-01, 6-[4-[[4-(3-Ethoxyphenyl)-3-fluorophenyl]methyl]piperazin-1-yl]-N-(2,2,2-trifluoroethyl)pyridazine-3-carboxamide] | 2.4 | −0.2 |
| CCOc1cncc(-c2ccc(CN3CCN(c4ccc(C(=O)NCC(F)(F)F)nn4)CC3)cc2F)c1 [B1K078-01, 6-[4-[[4-(5-Ethoxypyridin-3-yl)-3-fluorophenyl]methyl]piperazin-1-yl]-N-(2,2,2-trifluoroethyl)pyridazine-3-carboxamide] | 0.8 | −0.2 |
| CCOc1cccc(-c2ccc(CN3CCN(c4ccc(C(=O)NCC(F)(F)F)nn4)CC3)c(OC)c2)c1 [B1K079-01, 6-[4-[[4-(3-Ethoxyphenyl)-2-methoxyphenyl]methyl]piperazin-1-yl]-N-(2,2,2-trifluoroethyl)pyridazine-3-carboxamide] | 2.2 | −1.3 |
| CCOc1cncc(-c2ccc(CN3CCN(c4ccc(C(=O)NCC(F)(F)F)nn4)CC3)c(OC)c2)c1 [B1K080-01, 6-[4-[[4-(5-Ethoxypyridin-3-yl)-2-methoxyphenyl]methyl]piperazin-1-yl]-N-(2,2,2-trifluoroethyl)pyridazine-3-carboxamide] | 0.0 | 0.0 |
| CCOc1cccc(-c2cc(CN3CCN(c4ccc(C(=O)NCC(F)(F)F)nn4)CC3)cc(OCC)c2)c1 [B1K081-01, 6-[4-[[3-Ethoxy-5-(3-ethoxyphenyl)phenyl]methyl]piperazin-1-yl]-N-(2,2,2-trifluoroethyl)pyridazine-3-carboxamide] | 2.3 | −0.4 |
| CCOc1cncc(-c2cc(CN3CCN(c4ccc(C(=O)NCC(F)(F)F)nn4)CC3)cc(OCC)c2)c1 [B1K082-01, 6-[4-[[3-Ethoxy-5-(5-ethoxypyridin-3-yl)phenyl]methyl]piperazin-1-yl]-N-(2,2,2-trifluoroethyl)pyridazine-3-carboxamide] | 0.0 | 0.0 |

Continued, values first:

| ASMS ratio (%) n = 1 [%] | ASMS ratio (%) n = 2 [%] | SMILES |
| --- | --- | --- |
| 0.0 | 0.0 | CCOc1cccc(-c2cc(CN3CCN(c4ccc(C(=O)NCC(F)(F)F)nn4)CC3)cc(OC(C)C)c2)c1 [B1K083-01] |
| 0.0 | 0.0 | CCOc1cncc(-c2cc(CN3CCN(c4ccc(C(=O)NCC(F)(F)F)nn4)CC3)cc(OC(C)C)c2)c1 [B1K084-01, 6-[4-[[3-(5-Ethoxypyridin-3-yl)-5-propan-2-yloxyphenyl]methyl]piperazin-1-yl]-N-(2,2,2-trifluoroethyl)pyridazine-3-carboxamide] |
| 4.2 | −0.2 | CCOc1cccc(-c2cc(OC)c(CN3CCN(c4ccc(C(=O)NCC(F)(F)F)nn4)CC3)c(OC)c2)c1 [B1K085-01] |
| – | 0.0 | CCOc1cncc(-c2cc(OC)c(CN3CCN(c4ccc(C(=O)NCC(F)(F)F)nn4)CC3)c(OC)c2)c1 [B1K086-01, 6-[4-[[4-(5-Ethoxypyridin-3-yl)-2,6-dimethoxyphenyl]methyl]piperazin-1-yl]-N-(2,2,2-trifluoroethyl)pyridazine-3-carboxamide] |
| 1.8 | −0.1 | CCOc1cccc(-c2cc(CN3CCN(c4ccc(C(=O)NCC(F)(F)F)nn4)CC3)cc(C(F)(F)F)c2)c1 [B1K087-01] |
| 2.2 | −0.2 | CCOc1cncc(-c2cc(CN3CCN(c4ccc(C(=O)NCC(F)(F)F)nn4)CC3)cc(C(F)(F)F)c2)c1 [B1K088-01, 6-[4-[[3-(5-Ethoxypyridin-3-yl)-5-(trifluoromethyl)phenyl]methyl]piperazin-1-yl]-N-(2,2,2-trifluoroethyl)pyridazine-3-carboxamide] |
| 2.0 | 1.0 | CCOc1cccc(-c2cc(CN3CCN(c4ccc(C(=O)NCC(F)(F)F)nn4)CC3)cc(OC(F)(F)F)c2)c1 [B1K089-01, 6-[4-[[3-(3-Ethoxyphenyl)-5-(trifluoromethoxy)phenyl]methyl]piperazin-1-yl]-N-(2,2,2-trifluoroethyl)pyridazine-3-carboxamide] |
| −0.6 | −1.9 | CCOc1cncc(-c2cc(CN3CCN(c4ccc(C(=O)NCC(F)(F)F)nn4)CC3)cc(OC(F)(F)F)c2)c1 [B1K090-01, 6-[4-[[3-(5-Ethoxypyridin-3-yl)-5-(trifluoromethoxy)phenyl]methyl]piperazin-1-yl]-N-(2,2,2-trifluoroethyl)pyridazine-3-carboxamide] |
| 3.6 | −4.2 | CCOc1cccc(-c2ccc(CN3CCN(c4ccc(C(=O)NCC(F)(F)F)nn4)CC3)c3ccccc23)c1 [B1K091-01, 6-[4-[[4-(3-Ethoxyphenyl)naphthalen-1-yl]methyl]piperazin-1-yl]-N-(2,2,2-trifluoroethyl)pyridazine-3-carboxamide] |
| 4.1 | −0.7 | CCOc1cncc(-c2ccc(CN3CCN(c4ccc(C(=O)NCC(F)(F)F)nn4)CC3)c3ccccc23)c1 [B1K092-01, 6-[4-[[4-(5-Ethoxypyridin-3-yl)naphthalen-1-yl]methyl]piperazin-1-yl]-N-(2,2,2-trifluoroethyl)pyridazine-3-carboxamide] |
| 2.7 | −0.4 | CCOc1cccc(-c2csc(CN3CCN(c4ccc(C(=O)NCC(F)(F)F)nn4)CC3)c2)c1 [B1K093-01, 6-[4-[[4-(3-Ethoxyphenyl)thiophen-2-yl]methyl]piperazin-1-yl]-N-(2,2,2-trifluoroethyl)pyridazine-3-carboxamide] |
| 1.4 | −0.1 | CCOc1cncc(-c2csc(CN3CCN(c4ccc(C(=O)NCC(F)(F)F)nn4)CC3)c2)c1 [B1K094-01, 6-[4-[[4-(5-Ethoxypyridin-3-yl)thiophen-2-yl]methyl]piperazin-1-yl]-N-(2,2,2-trifluoroethyl)pyridazine-3-carboxamide] |
| 3.5 | −0.6 | CCOc1cccc(C#Cc2ccccc2CN2CCN(c3ccc(C(=O)NCC(F)(F)F)nn3)CC2)c1 [B1K095-01, 6-[4-[[2-[2-(3-Ethoxyphenyl)ethynyl]phenyl]methyl]piperazin-1-yl]-N-(2,2,2-trifluoroethyl)pyridazine-3-carboxamide] |
| 0.0 | 0.0 | CCOc1cncc(C#Cc2ccccc2CN2CCN(c3ccc(C(=O)NCC(F)(F)F)nn3)CC2)c1 [B1K096-01, 6-[4-[[2-[2-(5-Ethoxypyridin-3-yl)ethynyl]phenyl]methyl]piperazin-1-yl]-N-(2,2,2-trifluoroethyl)pyridazine-3-carboxamide] |
